target: ATR kinase (full-length ATR) (Homo sapiens (Human), UniProt Q13535); test: ATR inhibition assay (radioactive-phosphate incorporation); format: biochemical; conditions: not given
Procedure: Compounds were screened for their ability to inhibit ATR kinase using a radioactive-phosphate incorporation assay. Assays were carried out in a mixture of 50 mM Tris/HCl (pH 7.5), 10 mM MgCl2 and 1 mM DTT. Final substrate concentrations were 10 μM [γ-33P]ATP (3mCi 33P ATP/mmol ATP, Perkin Elmer) and 800 μM target peptide ([…]) (SEQ ID NO:1).
Assays were carried out at 25° C. in the presence of 5 nM full-length ATR. An assay stock buffer solution was prepared containing all of the reagents listed above, with the exception of ATP and the test compound of interest. 13.5 μL of the stock solution was placed in a 96 well plate followed by addition of 2 μL of DMSO stock containing serial dilutions of the test compound (typically starting from a final concentration of 15 μM with 3-fold serial dilutions) in duplicate (final DMSO concentration 7%). The plate was pre-incubated for 10 minutes at 25° C. and the reaction initiated by addition of 15 μL [γ-33P]ATP (final concentration 10 μM).
The reaction was stopped after […] by the addition of 30 μL 0.1M phosphoric acid containing 2 mM ATP. A multiscreen phosphocellulose filter 96-well plate (Millipore, Cat no. MAPHN0B50) was pretreated with 100 μL 0.2M phosphoric acid prior to the addition of […] of the stopped assay mixture. The plate was washed with 5×200 μL 0.2M phosphoric acid. After drying, 100 μL Optiphase ‘SuperMix’ liquid scintillation cocktail (Perkin Elmer) was added to the well prior to scintillation counting (1450 Microbeta Liquid Scintillation Counter, Wallac).
After removing mean background values for all of the data points, Ki(app) data were calculated from non-linear regression analysis of the initial rate data using the Prism software package (GraphPad Prism version 3.0cx for Macintosh, GraphPad Software, San Diego Calif., USA).

Chain of ATR kinase (full-length ATR) (Q13535 whole entry): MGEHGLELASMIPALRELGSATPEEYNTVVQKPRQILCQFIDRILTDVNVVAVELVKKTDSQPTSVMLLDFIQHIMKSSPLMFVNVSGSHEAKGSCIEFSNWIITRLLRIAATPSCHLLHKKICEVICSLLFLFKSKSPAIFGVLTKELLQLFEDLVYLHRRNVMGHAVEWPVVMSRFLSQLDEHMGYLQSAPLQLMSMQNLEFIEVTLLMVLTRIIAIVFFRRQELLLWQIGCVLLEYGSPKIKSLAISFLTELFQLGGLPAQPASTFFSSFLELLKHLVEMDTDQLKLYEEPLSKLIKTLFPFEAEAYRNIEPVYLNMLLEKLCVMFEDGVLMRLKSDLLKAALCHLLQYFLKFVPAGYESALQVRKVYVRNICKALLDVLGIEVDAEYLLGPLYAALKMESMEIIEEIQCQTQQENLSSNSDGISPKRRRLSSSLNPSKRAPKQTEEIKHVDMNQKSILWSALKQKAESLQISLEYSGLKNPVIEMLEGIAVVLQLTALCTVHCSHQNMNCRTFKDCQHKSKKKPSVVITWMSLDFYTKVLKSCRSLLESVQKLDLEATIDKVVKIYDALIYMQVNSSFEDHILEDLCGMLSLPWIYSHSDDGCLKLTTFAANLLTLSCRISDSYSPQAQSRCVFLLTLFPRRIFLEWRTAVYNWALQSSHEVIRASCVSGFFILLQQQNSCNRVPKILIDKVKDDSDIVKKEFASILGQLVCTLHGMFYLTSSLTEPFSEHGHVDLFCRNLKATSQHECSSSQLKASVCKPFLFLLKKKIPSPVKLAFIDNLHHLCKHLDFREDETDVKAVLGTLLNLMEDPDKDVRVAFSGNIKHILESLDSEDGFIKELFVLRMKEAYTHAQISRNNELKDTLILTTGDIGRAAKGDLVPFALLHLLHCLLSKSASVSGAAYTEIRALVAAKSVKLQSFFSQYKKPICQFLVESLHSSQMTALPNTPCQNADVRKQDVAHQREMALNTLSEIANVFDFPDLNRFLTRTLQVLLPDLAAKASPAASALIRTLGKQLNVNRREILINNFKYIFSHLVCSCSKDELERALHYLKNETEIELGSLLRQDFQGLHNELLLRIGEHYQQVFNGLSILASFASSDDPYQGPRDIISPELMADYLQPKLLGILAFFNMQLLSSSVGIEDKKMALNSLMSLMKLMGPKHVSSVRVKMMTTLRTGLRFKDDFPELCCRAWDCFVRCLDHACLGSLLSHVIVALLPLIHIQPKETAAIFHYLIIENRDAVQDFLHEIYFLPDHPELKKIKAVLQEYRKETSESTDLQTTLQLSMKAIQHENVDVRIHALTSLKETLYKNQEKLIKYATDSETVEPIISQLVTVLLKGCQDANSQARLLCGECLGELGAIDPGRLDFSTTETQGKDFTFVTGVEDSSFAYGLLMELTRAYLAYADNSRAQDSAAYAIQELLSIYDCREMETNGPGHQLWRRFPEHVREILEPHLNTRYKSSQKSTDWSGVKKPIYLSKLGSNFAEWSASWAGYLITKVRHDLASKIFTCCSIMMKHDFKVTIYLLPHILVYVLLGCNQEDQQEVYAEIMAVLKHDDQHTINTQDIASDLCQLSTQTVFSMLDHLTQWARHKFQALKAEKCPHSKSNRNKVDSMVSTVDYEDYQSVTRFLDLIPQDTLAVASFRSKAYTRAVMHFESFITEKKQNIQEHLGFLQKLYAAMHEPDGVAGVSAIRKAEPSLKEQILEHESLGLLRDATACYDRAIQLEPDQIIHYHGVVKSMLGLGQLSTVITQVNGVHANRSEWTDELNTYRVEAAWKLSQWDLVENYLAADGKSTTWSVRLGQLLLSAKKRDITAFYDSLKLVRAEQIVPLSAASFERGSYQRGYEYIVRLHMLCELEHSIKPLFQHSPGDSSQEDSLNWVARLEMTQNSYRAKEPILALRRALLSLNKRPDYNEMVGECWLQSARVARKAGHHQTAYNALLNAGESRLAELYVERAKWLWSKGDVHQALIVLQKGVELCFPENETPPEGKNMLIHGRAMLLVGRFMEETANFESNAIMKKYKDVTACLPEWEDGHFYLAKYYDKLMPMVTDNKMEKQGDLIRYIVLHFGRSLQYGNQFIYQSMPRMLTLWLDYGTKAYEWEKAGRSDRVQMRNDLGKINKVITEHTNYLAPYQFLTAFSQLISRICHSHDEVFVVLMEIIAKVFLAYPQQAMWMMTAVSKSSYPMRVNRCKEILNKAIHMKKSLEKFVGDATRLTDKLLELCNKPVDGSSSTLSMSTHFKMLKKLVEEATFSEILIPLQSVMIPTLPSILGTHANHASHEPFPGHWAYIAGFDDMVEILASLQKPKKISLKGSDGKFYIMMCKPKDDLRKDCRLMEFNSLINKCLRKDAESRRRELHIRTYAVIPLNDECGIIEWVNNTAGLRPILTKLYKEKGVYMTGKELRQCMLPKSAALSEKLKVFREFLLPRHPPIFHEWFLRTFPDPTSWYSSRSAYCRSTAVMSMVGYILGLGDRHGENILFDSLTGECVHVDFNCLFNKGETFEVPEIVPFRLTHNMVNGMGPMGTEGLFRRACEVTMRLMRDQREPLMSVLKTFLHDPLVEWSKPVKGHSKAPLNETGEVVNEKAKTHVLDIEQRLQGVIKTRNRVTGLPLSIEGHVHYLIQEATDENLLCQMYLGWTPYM

Ki [nM]	Structure (SMILES)
1000 to 5000	Nc1nn2cc(F)cnc2c1C(=O)Nc1cnccc1CN1CCCC1=O [I-C-76, 2-amino-6-fluoro-N-(4-((2-oxopyrrolidin-1-yl)methyl)pyridin-3-yl)pyrazolo[1,5-a]pyrimidine-3-carboxamide]

same assay, conditions: Ki(app), 5 nM full-length ATR, 10 μM ATP, 25° C.

Structure (SMILES)	Ki [nM]
CN1CCOC[C@@H]1c1ccc(-c2ccncc2NC(=O)c2c(N)nn3cc(F)cnc23)cc1 [I-C-66, (S)-2-amino-6-fluoro-N-(4-(4-(4-methylmorpholin-3-yl)phenyl)pyridin-3-yl)pyrazolo[1,5-a]pyrimidine-3-carboxamide]	10 to 1000
Cc1cncnc1-c1ccncc1NC(=O)c1c(N)nn2cc(F)cnc12 [I-C-67, 2-amino-6-fluoro-N-(4-(5-methylpyrimidin-4-yl)pyridin-3-yl)pyrazolo[1,5-a]pyrimidine-3-carboxamide]	10 to 1000
Cn1ccc(-c2ccncc2NC(=O)c2c(N)nn3cc(F)cnc23)n1 [I-C-68, 2-amino-6-fluoro-N-(4-(1-methyl-1H-pyrazol-3-yl)pyridin-3-yl)pyrazolo[1,5-a]pyrimidine-3-carboxamide]	10 to 1000
CC(=O)N1CCC(c2ccncc2NC(=O)c2c(N)nn3cc(F)cnc23)CC1 [I-C-69, N-(4-(1-acetylpiperidin-4-yl)pyridin-3-yl)-2-amino-6-fluoropyrazolo[1,5-a]pyrimidine-3-carboxamide]	10 to 1000
Nc1nn2cc(F)cnc2c1C(=O)Nc1cnccc1C1CCN(C(=O)C2CC2)CC1 [I-C-70, 2-amino-N-(4-(1-(cyclopropanecarbonyl)piperidin-4-yl)pyridin-3-yl)-6-fluoropyrazolo[1,5-a]pyrimidine-3-carboxamide]	10 to 1000
N#CC1(C(=O)N2CCC(c3ccncc3NC(=O)c3c(N)nn4cc(F)cnc34)CC2)CC1 [I-C-71, 2-amino-N-(4-(1-(1-cyanocyclopropanecarbonyl)piperidin-4-yl)pyridin-3-yl)-6-fluoropyrazolo[1,5-a]pyrimidine-3-carboxamide]	10 to 1000
Cn1nncc1-c1ccncc1NC(=O)c1c(N)nn2cc(F)cnc12 [I-C-72, 2-amino-6-fluoro-N-(4-(1-methyl-1H-1,2,3-triazol-5-yl)pyridin-3-yl)pyrazolo[1,5-a]pyrimidine-3-carboxamide]	10 to 1000
CN1CCC(c2ccncc2NC(=O)c2c(N)nn3cc(F)cnc23)CC1=O (stereo not drawn) [I-C-73, 2-amino-6-fluoro-N-(4-(1-methyl-2-oxopiperidin-4-yl)pyridin-3-yl)pyrazolo[1,5-a]pyrimidine-3-carboxamide]	10 to 1000
Cn1ccc2c(NC(=O)c3c(N)nn4cc(F)cnc34)cncc21 [I-C-74, 2-amino-6-fluoro-N-(1-methyl-1H-pyrrolo[2,3-c]pyridin-4-yl)pyrazolo[1,5-a]pyrimidine-3-carboxamide]	10 to 1000
Nc1nn2cc(F)cnc2c1C(=O)Nc1cnccc1C1CCOC1 (stereo not drawn) [I-C-75, 2-amino-6-fluoro-N-(4-(tetrahydrofuran-3-yl)pyridin-3-yl)pyrazolo[1,5-a]pyrimidine-3-carboxamide]	10 to 1000
Cc1ncc(-c2ccncc2NC(=O)c2c(N)nn3cc(F)cnc23)n1C [I-C-77, 2-amino-N-(4-(1,2-dimethyl-1H-imidazol-5-yl)pyridin-3-yl)-6-fluoropyrazolo[1,5-a]pyrimidine-3-carboxamide]	10 to 1000
Cc1ncn(C)c1-c1ccncc1NC(=O)c1c(N)nn2cc(F)cnc12 [I-C-78, 2-amino-N-(4-(1,4-dimethyl-1H-imidazol-5-yl)pyridin-3-yl)-6-fluoropyrazolo[1,5-a]pyrimidine-3-carboxamide]	10 to 1000
CCn1cncc1-c1ccncc1NC(=O)c1c(N)nn2cc(F)cnc12 [I-C-80, 2-amino-N-(4-(1-ethyl-1H-imidazol-5-yl)pyridin-3-yl)-6-fluoropyrazolo[1,5-a]pyrimidine-3-carboxamide]	10 to 1000
COc1cncc(NC(=O)c2c(N)nn3cc(F)cnc23)c1-c1cncn1C [I-C-81, 2-amino-6-fluoro-N-(5-methoxy-4-(1-methyl-1H-imidazol-5-yl)pyridin-3-yl)pyrazolo[1,5-a]pyrimidine-3-carboxamide]	< 10

Now from value to compound:

Ki [nM]	Structure (SMILES)
10 to 1000	COc1cncc(NC(=O)c2c(N)nn3cc(F)cnc23)c1-c1cccnc1 [I-C-82, 2-amino-6-fluoro-N-(5′-methoxy-[3,4′-bipyridin]-3′-yl)pyrazolo[1,5-a]pyrimidine-3-carboxamide]
10 to 1000	COCCn1cncc1-c1ccncc1NC(=O)c1c(N)nn2cc(F)cnc12 [I-C-83, 2-amino-6-fluoro-N-(4-(1-(2-methoxyethyl)-1H-imidazol-5-yl)pyridin-3-yl)pyrazolo[1,5-a]pyrimidine-3-carboxamide]
10 to 1000	COc1cncc(NC(=O)c2c(N)nn3cc(F)cnc23)c1C1CC1 [I-C-84, 2-amino-N-(4-cyclopropyl-5-methoxypyridin-3-yl)-6-fluoropyrazolo[1,5-a]pyrimidine-3-carboxamide]
10 to 1000	CN1CCN(C(=O)C2CCN(c3ccncc3NC(=O)c3c(N)nn4cc(F)cnc34)CC2)CC1 [I-G-1, 2-amino-6-fluoro-N-(4-(4-(4-methylpiperazine-1-carbonyl)piperidin-1-yl)pyridin-3-yl)pyrazolo[1,5-a]pyrimidine-3-carboxamide]
10 to 1000	CN(C)C(=O)C1CCN(c2ccncc2NC(=O)c2c(N)nn3cc(F)cnc23)CC1 [I-G-2, 2-amino-N-(4-(4-(dimethylcarbamoyl)piperidin-1-yl)pyridin-3-yl)-6-fluoropyrazolo[1,5-a]pyrimidine-3-carboxamide]
10 to 1000	CN1CCN(C(=O)C2CCN(c3c(Cl)cncc3NC(=O)c3c(N)nn4cc(F)cnc34)CC2)CC1 [I-G-3, 2-amino-N-(5-chloro-4-(4-(4-methylpiperazine-1-carbonyl)piperidin-1-yl)pyridin-3-yl)-6-fluoropyrazolo[1,5-a]pyrimidine-3-carboxamide]
10 to 1000	CN1CCN(C(=O)C2CCN(c3c(F)cncc3NC(=O)c3c(N)nn4cc(Cl)cnc34)CC2)CC1 [I-G-5, 2-amino-6-chloro-N-(5-fluoro-4-(4-(4-methylpiperazine-1-carbonyl)piperidin-1-yl)pyridin-3-yl)pyrazolo[1,5-a]pyrimidine-3-carboxamide]
10 to 1000	CN1CCCN(C(=O)C2CCN(c3c(F)cncc3NC(=O)c3c(N)nn4cc(F)cnc34)CC2)CC1 [I-G-6, 2-amino-6-fluoro-N-(5-fluoro-4-(4-(4-methyl-1,4-diazepane-1-carbonyl)piperidin-1-yl)pyridin-3-yl)pyrazolo[1,5-a]pyrimidine-3-carboxamide]
10 to 1000	Nc1nn2cc(F)cnc2c1C(=O)Nc1cncc(F)c1N1CCC(C(=O)N2CCC2)CC1 [I-G-8, 2-amino-N-(4-(4-(azetidine-1-carbonyl)piperidin-1-yl)-5-fluoropyridin-3-yl)-6-fluoropyrazolo[1,5-a]pyrimidine-3-carboxamide]
10 to 1000	CCN1CCN(C(=O)C2CCN(c3c(F)cncc3NC(=O)c3c(N)nn4cc(F)cnc34)CC2)CC1 [I-G-9, 2-amino-N-(4-(4-(4-ethylpiperazine-1-carbonyl)piperidin-1-yl)-5-fluoropyridin-3-yl)-6-fluoropyrazolo[1,5-a]pyrimidine-3-carboxamide]
10 to 1000	Nc1nn2cc(F)cnc2c1C(=O)Nc1cncc(F)c1N1CCC(C(=O)N2CCN3CCCC3C2)CC1 (stereo not drawn) [I-G-10, 2-amino-6-fluoro-N-(5-fluoro-4-(4-(octahydropyrrolo[1,2-a]pyrazine-2-carbonyl)piperidin-1-yl)pyridin-3-yl)pyrazolo[1,5-a]pyrimidine-3-carboxamide]
10 to 1000	CN(C)[C@@H]1CCN(C(=O)C2CCN(c3c(F)cncc3NC(=O)c3c(N)nn4cc(F)cnc34)CC2)C1 [I-G-11, (R)-2-amino-N-(4-(4-(3-(dimethylamino)pyrrolidine-1-carbonyl)piperidin-1-yl)-5-fluoropyridin-3-yl)-6-fluoropyrazolo[1,5-a]pyrimidine-3-carboxamide]
10 to 1000	Nc1nn2cc(F)cnc2c1C(=O)Nc1cncc(F)c1N1CCC(C(=O)N2CCN(C3CC3)CC2)CC1 [I-G-13, 2-amino-N-(4-(4-(4-cyclopropylpiperazine-1-carbonyl)piperidin-1-yl)-5-fluoropyridin-3-yl)-6-fluoropyrazolo[1,5-a]pyrimidine-3-carboxamide]
10 to 1000	CN1CCN(C(=O)C2CCN(c3c(F)cncc3NC(=O)c3c(N)nn4cc(F)cnc34)CC2)CC1(C)C [I-G-15, 2-amino-6-fluoro-N-(5-fluoro-4-(4-(3,3,4-trimethylpiperazine-1-carbonyl)piperidin-1-yl)pyridin-3-yl)pyrazolo[1,5-a]pyrimidine-3-carboxamide]
10 to 1000	CN(C)CCCN(C)C(=O)C1CCN(c2c(F)cncc2NC(=O)c2c(N)nn3cc(F)cnc23)CC1 [I-G-16, 2-amino-N-(4-(4-((3-(dimethylamino)propyl)(methyl)carbamoyl)piperidin-1-yl)-5-fluoropyridin-3-yl)-6-fluoropyrazolo[1,5-a]pyrimidine-3-carboxamide]

Reference: patent US10392391B2 (Vertex Pharmaceuticals Incorporated, priority 2012, dated 2019)
